# Measurements reported in patent publication US10220033B2, “Substituted benzoxazepine for cancer therapy” (University of Cape Town, priority 2014, dated 2019).
# “Also recorded” adds a separate entry of the source.
# Assays:
# [1] = system: non-cancer fibroblast cells; assay: MTT cell viability, summary statement for non-cancer cells; format: cell-based
# Description: Cells were plated in 96-well plates and treated with varying concentrations of a test compound for 48 hours, after which MTT dye, 3-(4,5-dimethylthiazol-2-yl)-2,5-diphenyltetrazolium bromide (Sigma), was added, and crystals solubilised 4 hours later using Solubilisation Reagent (10% SLS in 0.01 M HCl). Absorbencies were measured at 595 nm the following day using a BioTek microplate spectrophotometer (Winooski, Vt., USA) and IC50 curves were generated using GraphPad Prism.
# [2] = system: PARP cleavage in CaSki cells; assay: PARP cleavage analysis by Western Blot; format: cell-based; conditions: IC50 and twice the IC50 (FIG. 5), varying concentrations 12 hours (FIG. 26)
# Description: CaSki cells were treated with varying concentrations of Compound A for 12 hours, following which cells and cell floaters were harvested using RIPA buffer (10 mM Tris-Cl, pH 7.4, 150 mM NaCl, 1% sodium deoxycholate, 0.1% SDS, 1% Triton X-100, 1× complete protease inhibitor cocktail (Roche, Mannheim, Germany)) and Western Blot analysis performed, using a rabbit anti-Parp1/2 (H-250) antibody (sc-7150).
# [3] = system: GFP-Kpnα2 localisation in CaSki cells; assay: GFP-Kpnα2 nuclear translocation, fluorescence microscopy; format: cell-based; conditions: 10 μM
# Description: For controls, equivalent volumes of DMSO were used. Cells were fixed with 4% paraformaldehyde prior to fluorescence microscopy and cell nuclei were stained with 0.5 μg/ml DAPI. Due to fluorescence emitted by Compound A in the GFP channel, the Compound A signal had to be excluded from the GFP signal by separating the emission spectra. A Zeiss LSM 510 Meta confocal microscope was used and images captured using the ZEN 2009 camera with associated AxioVision software (version 4.7). Pictures were edited using the Zeiss image browser. For quantification, 100 cells from each condition were analysed using Image J.
# Compound A with cell-killing ability was tested for its ability to block nuclear import using a fluorescence-based screening assay. The assay was based on the fact that Kpnα enters the nucleus in a complex with Kpnβ1. Kpnα2 (Impα1 or Rch1) was GFP-tagged (FIG. 8) and its localisation monitored after treatment with the various compounds, via fluorescence microscopy. […] It was noted that Compound A fluoresced itself, and thus the compound fluorescence signal had to be excluded from the GFP-Kpnα2 signal by separating the emission spectra.
# [4] = system: NFAT transcriptional activity in NFAT-transfected HeLa cells; assay: NFAT luciferase reporter assay; format: cell-based; conditions: stimulated with TPA and ionomycin (FIGS. 16-20)
# Description: To assay for NFAT luciferase activity, 30 000 HeLa cells were plated per well in 24-well plates, and transfected with 50 ng GFP-NFAT plasmid (Addgene plasmid #24219, gift of Jerry Crabtree (Beals C R, Clipstone N A, Ho S N, Crabtree G R. Nuclear localization of NF-ATc by a calcineurin-dependent, cyclosporin-sensitive intramolecular interaction. Genes Dev 1997 Apr. 1; 11(7):824-34)), 50 ng NFAT-luciferase (Addgene plasmid #10959, gift of Toren Finkel (Ichida M, Finkel T. Ras regulates NFAT3 activity in cardiac myocytes. J Biol Chem 2001 Feb. 2; 276(5):3524-30)), and 5 ng pRL-TK, using 0.4 μl Genecellin™ Transfection Reagent (Celtic Molecular Diagnostics, South Africa). The NFAT-luciferase reporter plasmid contains three tandem repeats of a 30 bp fragment of the IL-2 promoter known to bind NFAT. The following day cells were treated with 10 or 15 μM Compound A and after an overnight incubation, stimulated with 100 nM TPA (Sigma) and 1.3 μM Ionomycin (Santa Cruz Biotechnology, Santa Cruz, Calif., USA) for 5 hours, following which luciferase activity was measured.
# An assay for nuclear NFAT following ionomycin and Compound A treatment was carried out, using an NFAT-luciferase reporter that is activated by nuclear NFAT. The phorbol ester TPA was used to co-stimulate NFAT, as it has been shown previously that TPA and ionomycin elicit synergistic stimulation of NFAT luciferase activity (Northrop J P, Ullman K S, Crabtree G R. Characterization of the nuclear and cytoplasmic components of the lymphoid-specific nuclear factor of activated T cells (NF-AT) complex. J Biol Chem 1993 Feb. 5; 268(4):2917-23).
# [5] = system: CaSki, HeLa, KYSE30 and WHCO6 cancer cells; assay: Cell proliferation assay (MTT), cancer cells; format: cell-based
# Description: (§1) To assay for cell proliferation after Compound A treatment, 5000 cells/well were plated in 96-well plates and treated with 5, 10 or 15 μM Compound A, after which cell proliferation was monitored every 24 hours for four days, using MTT.
# (§2) This effect was sustained for the full 5 day time period, confirming that there was no population of cells that recovered from the treatment.
# [6] = system: DMB and FG0 non-cancer fibroblast cells; assay: Cell proliferation assay (MTT), non-cancer cells; format: cell-based
# Description: as §1, §2
# CaSki cells = assay: Cell cycle analysis; format: cell-based; conditions: 24 hours (FIGS. 24 and 25)
# Description: CaSki cells were plated in 60 mm dishes and treated with the appropriate concentration of Compound A. Cells were harvested 24 hours after treatment, and fixed in 100% ethanol, after which they were stained with Propidium Iodide and the cell cycle profiles analysed using a BD flow cytometer (BD Biosciences, NJ, USA). Data analysis was performed using ModFit 3.3 software.
# WHCO6 tumours = assay: Xenograft tumour model; format: in vivo; conditions: female nude mice, 50 mg/kg i.p. every 2-3 days for 3 weeks (FIG. 28)
# Description: WHCO6 cells were harvested and resuspended in PBS. For tumour inoculation, cancer cells (5×10^6 per mouse) were s.c. implanted into the hind flanks of female nude mice. Once tumours had reached a palpable size, drug treatment was initiated, where tumour-bearing mice were randomized and dosed i.p. with either vehicle (DMSO) or Compound A (50 mg/kg), every 2-3 days for 3 weeks. Tumour volumes were measured twice a week, using calipers, and tumour volume estimated using the following formula: volume=(length×width×width)/2. Mice were sacrificed 3 weeks after the commencement of drug treatment.
compound,measurement,setting,value
"CN(C)CCCn1c(N)c(-c2nc3ccccc3[nH]2)c2nc3ccccc3nc21 [Compound A, 3-(1H-benzimidazol-2-yl)-1-(3-dimethylaminopropyl)pyrrolo[5,4-b]quinoxalin-2-amine]",IC50,[1],20 to 30 µM
same,PARP cleavage as an indicator of apoptosis,[2],induce cancer cell death via apoptosis; also recorded: increase in the levels of the 89 kDa cleaved PARP
same,number of cells containing cytoplasmic GFP-Kpnα2,[3]; 24 hours (FIG. 9),significant increase
same,GFP-Kpnα2 nuclear fluorescence signal,[3]; 24 hours (FIG. 10),significant decrease
same,NFAT activation (NFAT-luciferase reporter),[4],significantly diminished NFAT activation
same,cell death,[5]; 10 μM (FIG. 22),100%
same,cell death in proliferation assay,"[5]; 10 and 15 μM, within 24 hour (FIG. 21 A-D)",complete cell death
same,cell proliferation,[6]; 10 μM (FIGS. 21 E and F),proliferated relatively normally
same,time within which cell death occurred,[6]; 15 μM,24 to 48 h
same,percentage of cells in the G1 stage of the cell cycle,CaSki cells,increase
same,percentage of cells in the S and G2/M stages,CaSki cells,decrease
same,tumour growth (normalised tumour volume),WHCO6 tumours,significantly inhibits tumour growth
